Reference: article PMC7381740 (Theranostics, 2020)
Values joined by “and” are separate entries in the source; they are usually repeats but may differ in a detail not shown here. Equal values may be shown once.

What was measured:
S1R [1] = target: T1, S1R (Rattus norvegicus, UniProt Q9R0C9); test: PET in AMPA excitotoxic lesion model; format: in vivo
Description: Animals were maintained normothermic (body temperature: 37.0 ± 0.4 °C) during the surgery through the use of a heating blanket (Homeothermic Blanket Control Unit, Harvard Apparatus Limited®, Edenbridge, Kent, UK). Twenty-four hours later, the rats were anesthetized again as described above and scanned with a 3T cryogen-free MRS 3000 scanner with a quadrature, rat head coil (MR Solutions, Guildford, UK), [35] to assess oedema (i.e. lesion size and location) immediately before the PET scan. Parameters for the T2-weighted RARE sequence were: repetition time = 4800 ms, base echo time = 17 ms, effective echo time = 68 ms, number of echoes = 8, bandwidth = 20 kHz, number of samples = 256, number of views = 240, number of averages = 1 with 25 slices of 1.06 mm, giving a final voxel size of 0.136 × 0.136 × 1.06 mm.
PET data were expressed as SUV.
As the experiments with CM398 were performed later, scans without and with pre-treatment with CM398 were performed in the same animals and therefore were analysed using 2 way ANOVA with repeated measures for ROI and treatment. ANOVA were followed by a Sidak's post-hoc test.

S1R [2] = target: T2, S1R (Mus musculus, UniProt O55242); test: Autoradiography in 6-OHDA Parkinson's disease mouse model; format: binding; conditions: 6-OHDA mouse
T2 construct: using 20µm fresh frozen brain sections from 6 naïve and 3 AMPA-injected Wistar rats, 6 C57Bl6 mice; from tissue; host or cells: fresh frozen brain sections of 6-OHDA-lesioned C57Bl6 mice
T2 sequence (O55242 whole entry): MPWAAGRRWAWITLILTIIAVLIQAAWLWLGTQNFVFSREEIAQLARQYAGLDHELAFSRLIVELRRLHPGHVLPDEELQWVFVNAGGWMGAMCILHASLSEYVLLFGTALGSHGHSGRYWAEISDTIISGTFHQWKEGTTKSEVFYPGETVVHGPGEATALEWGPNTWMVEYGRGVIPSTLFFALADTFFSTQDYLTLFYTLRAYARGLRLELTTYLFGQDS
Description: C57Bl6 mice were bred in the animal facility of the European Institute for Molecular Imaging (University of Muenster). Animal experiments were performed in accordance with the German laws for animal protection and were approved by the local bureau for animal care (LANUV, Landesamt für Natur, Umwelt und Verbraucherschutz Nordrhein-Westfalen). For stereotactic injections, mice (n = 6) were anaesthetised (ketamine/xylazine i.p.) and placed into a stereotactic frame. A small skin incision followed by craniotomy was performed. The needle was placed in position (coordinates: AP: +0.5 mm; ML: -2.0 mm; DV: -3.0 mm) and after 1 min, 2 µL of 5 mg/mL 6-hydroxydopamine (6-OHDA) in 0.9% NaCl and 0.02% ascorbic acid were injected into the left striatum using a 5 µL Hamilton 7005KH syringe. The syringe was kept in place for 5 min in order to allow the solution to diffuse into the surrounding tissue and was then retracted slowly.
Sections of frontal (Brodmann areas 8/9) and temporal cortex (Brodmann areas 21/22) were cut from frozen human tissue blocks. Human and rodents sections were mounted on to glass slides (SuperFrost Plus Gold and SuperFrost Plus slides, Thermo Fisher Scientific Inc., MA, USA for human and animal tissues, respectively). For all steps described below, Tris buffer (Trizma pre-set crystals (Sigma, UK), 50 mM, with 120 mM NaCl, with pH adjusted to 7.4 at 4 °C or room temperature) was used. Slides were allowed to defrost then pre-incubated in Tris Buffer at 4 °C for 5min. […] Adjacent sections were incubated with the same solution containing an excess of unlabelled IAM6067 (2 µM) to assess non-specific binding. Next the slides were washed 2 × 2 min in Tris buffer at 4 °C, followed by a quick rinsing in distilled water at 4 °C. Slides were then dried promptly before exposition on Phosphor-Imager plates overnight. Autoradiographs were analysed using AIDA software (Raytest GmbH, Germany). […] Specific binding (total binding minus non-specific binding) in each ROI is expressed as intensity of the photostimulated luminescence (PSL) per pixel.

S1R [3] = target: T1, S1R; test: PET-CT brain uptake at baseline; conditions: for maximum brain uptake: PET time-activity curve; for average uptake (sum-image 20-60 min post-injection): baseline
Description: Sixty minutes PET scans were performed on 23 animals on a Siemens Inveon® PET/CT scanner (Injected dose: 38±11MBq). Eight of them were used for basal uptake. […] Animals scanned on multiple occasions (with/without blocking or different blocking agent) were always scanned at least 24 h apart. […] Animal respiration and temperature were controlled using a pressure-sensitive pad and rectal probe (BioVet, m2m Imaging Corp., Cleveland, OH, USA) and body temperature was maintained at 37 ± 0.7 °C via the interface managed by the BioVet system. […] Briefly, a CT scan was performed prior to the PET acquisition for attenuation correction. The list mode emission data were histogrammed into 3D sinograms of 35 dynamic frames, normalized, corrected for dead-time, attenuation, scatter and radioactive decay, and reconstructed using OSEM3D (16 subsets and 4 iterations) into images of dimensions 128 × 128 × 159 voxels of volume 0.776 × 0.776 × 0.796 mm^3.
PET-CT images were co-registered with the rat MRI template and its associated intracranial mask as published by Schwarz et al. [41] and generously provided by GSK. To co-register the MRI template and PET-CT images, individual brain masks were delineated on each CT image and co-registered with the MRI brain mask using rigid registration with mutual information. Image analysis and quantification was performed using the BrainVisa/Anatomist software (http://www.brainvisa.info) using the geometric transfer matrix (GTM) and ROIopt methods for partial volume correction both described and used previously [42]-[46]. […] PET data were expressed as SUV.

σ1 receptor (S1R) = conditions: cited from earlier work
[4] = Metabolite analysis in plasma and brain (radio-HPLC after i.v. injection); format: in vivo, rat
Description: Blood samples were collected at 1, 2, 5 min post-injection and at 10, 20, 40 or 60 min post-injection when the animals were sacrificed. Seven animals used for metabolites analysis were also scanned for 60 min. Plasma was isolated by centrifugation (3 min, 3000 × g at 4 °C). Two hundred µL of CH3CN was added to 200 µL of serum for protein precipitation and after centrifugation (3 min, 3000 × g at 4 °C), 100 µL of supernatant was injected into the HPLC for quantification (HPLC equipment: Shimadzu prominence with a UV detector and bespoke Scintillation detector; column: ACE 3 C18 HL, [Hichrom], 150 × 4.6 mm; porosity: 3 μm; solvent A: 0.1 M ammonium acetate; solvent B: CH3CN, isocratic elution: 50:50 (A/B) in 15 min; flow rate: 1 mL/min; room temperature; absorbance detection at λ = 254 nm). Animal brains were removed and then homogenised by ultra-Turrax® in 2 mL of ice-cold acetonitrile. After centrifugation (3 min, 9000 × g at 4 °C), the supernatant was separated from the pellet. One hundred microliters of brain supernatant were injected on the HPLC column (same conditions as above). Control samples were spiked with 15 µL of stable standard. The parent radiotracer eluted at 11 minutes.

T1 sequence (Q9R0C9 whole entry): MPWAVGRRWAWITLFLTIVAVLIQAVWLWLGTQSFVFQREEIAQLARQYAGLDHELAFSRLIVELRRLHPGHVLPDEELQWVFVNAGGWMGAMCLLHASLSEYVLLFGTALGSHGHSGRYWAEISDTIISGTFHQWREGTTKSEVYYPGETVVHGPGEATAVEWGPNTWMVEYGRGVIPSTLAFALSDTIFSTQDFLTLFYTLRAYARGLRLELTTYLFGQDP

**Q.** Which “^18F-IAM6067 uptake, AMPA-lesioned vs control rats (in words)” value (S1R [1]; ipsi- and contralateral substantia nigra and pons-raphe) does the source give for `FCCOc1ccc(CN2CCN(Cc3cc4ccccc4o3)CC2)cc1` [^18F-IAM6067, N-(2-Benzofuranylmethyl)-N'-[4-(2-fluoroethoxy)benzyl]piperazine] here?
**A.** significant increase

**Q.** And the “change in ^18F-IAM6067 uptake (PET)” value (S1R [1]; lesioned caudate-putamen, 24 h after intrastriatal AMPA 7.5 nmol)?
**A.** -16% and -16 ± 11%

**Q.** And the specific binding (S1R [2]; cingulate cortex, contralateral)?
**A.** 4.29 ± 0.84 PSL/pixel

**Q.** What about the specific binding (S1R [2]; cingulate cortex, ipsilateral) of the same molecule?
**A.** 4.21 ± 0.87 PSL/pixel

**Q.** What about the specific binding (S1R [2]; striatum, contralateral) of the same molecule?
**A.** 3.30 ± 0.55 PSL/pixel

**Q.** What about the specific binding (S1R [2]; striatum, ipsilateral) of the same molecule?
**A.** 3.39 ± 0.49 PSL/pixel

**Q.** What about the specific binding (S1R [2]; thalamus medio-dorsal, contralateral) of the same molecule?
**A.** 3.22 ± 0.65 PSL/pixel

**Q.** And the specific binding (S1R [2]; thalamus medio-dorsal, ipsilateral)?
**A.** 3.25 ± 0.64 PSL/pixel

**Q.** And the specific binding (S1R [2]; ventral tegmental area/substantia nigra, contralateral)?
**A.** 3.92 ± 1.08 PSL/pixel

**Q.** What about the specific binding (S1R [2]; ventral tegmental area/substantia nigra, ipsilateral) of the same molecule?
**A.** 3.82 ± 1.25 PSL/pixel

**Q.** And the maximum brain uptake (S1R [3]; amygdala)?
**A.** 3.3 SUV

**Q.** And the “average uptake (sum-image 20-60 min post-injection)” value (from here on “average uptake”) (S1R [3]; caudate/putamen)?
**A.** 2.3 ± 0.1 SUV

**Q.** What about the “average uptake” value (S1R [3]; cingulate cortex) of the same molecule?
**A.** 2.3 ± 0.2 SUV

**Q.** And the “average uptake” value (S1R [3]; mesencephalic region)?
**A.** 4.7 ± 0.3 SUV

**Q.** And the “average uptake” value (S1R [3]; pons-raphe)?
**A.** 6.4 ± 0.8 SUV

**Q.** What about the “average uptake” value (S1R [3]; substantia nigra) of the same molecule?
**A.** 3.8 ± 0.7 SUV

**Q.** And the “average uptake” value (S1R [3]; temporal cortex)?
**A.** 2.5 ± 0.2 SUV

**Q.** And the “average uptake” value (S1R [3]; thalamus medio-dorsal)?
**A.** 3.9 ± 0.4 SUV

**Q.** And the “time of maximum brain uptake” value (S1R [3]; post-injection, amygdala and thalamus medio-dorsal)?
**A.** 2.25 min

**Q.** What about the maximum brain uptake (S1R [3]; thalamus medio-dorsal) of the same molecule?
**A.** 5.5 SUV

**Q.** And the Ki (σ1 receptor (S1R))?
**A.** 2.6 nM

**Q.** And the “Percentage of ^18F-IAM6067 and metabolites” value (“Percentage” for short) ([4]; rat brain, 10 min post-injection)?
**A.** 91.3±3.7%

**Q.** What about the “Percentage” value ([4]; rat brain, 20 min post-injection) of the same molecule?
**A.** 94.1±2.8%

**Q.** And the “Percentage” value ([4]; rat brain, 60 min post-injection)?
**A.** 91.3±6.0%

**Q.** What about the “Percentage” value ([4]; rat plasma, 1 min post-injection) of the same molecule?
**A.** 88.8±12.1%

**Q.** And the “Percentage” value ([4]; rat plasma, 2 min post-injection)?
**A.** 58.3±4.1%

**Q.** What about the “Percentage” value ([4]; rat plasma, 5 min post-injection) of the same molecule?
**A.** 22.4±11.6%

**Q.** What about the “Percentage” value ([4]; rat plasma, 10 min post-injection) of the same molecule?
**A.** ~10%

**Q.** What about the “Percentage” value ([4]; rat plasma, 10 min post-injection, listed as Parent) of the same molecule?
**A.** 10.1±8.6%

**Q.** And the “Percentage” value ([4]; rat plasma, 20 min post-injection)?
**A.** ~10%

**Q.** And the “Percentage” value ([4]; rat plasma, 20 min post-injection, listed as Parent)?
**A.** 9.8±4.2%

**Q.** And the “Percentage” value ([4]; rat plasma, 60 min post-injection)?
**A.** not detectable

**Q.** What about the “Percentage” value ([4]; rat plasma, 60 min post-injection, listed as Parent) of the same molecule?
**A.** 0.0%
